Data on 30 compounds can be found in patent US20050043315A1, “Aminopyrimidine compounds, processes for their preparation and pharmaceutical compositions containing them” (priority 2002, published 2005).

`CC(C)n1nc(-c2cnc(N)nc2-c2ccc(O)cc2)ccc1=O` (hydrate or solvate) [Example 185, 6-[2-amino-4-(4-hydroxyphenyl)-5-pyrimidinyl]-2-isopropyl-3(2H)-pyridazinone] gave a melting point of 246 °C. In the case of `CC(C)n1nc(-c2cnc(N)nc2-c2ccccc2O)ccc1=O` (hydrate or solvate) [Example 186, 6-[2-Amino-4-(2-hydroxyphenyl)-5-pyrimidinyl]-2-isopropyl-3(2H)-pyridazinone], the melting point was found to be 241 °C.

`CC(C)n1nc(-c2cnc(N)nc2-c2cccc(O)c2)ccc1=O` (hydrate or solvate) [Example 187, 6-[2-Amino-4-(3-hydroxyphenyl)-5-pyrimidinyl]-2-isopropyl-3(2H)-pyridazinone] displayed a melting point of 204 °C. Regarding `Cn1nc(-c2cnc(N)nc2-c2ccc(O)cc2)ccc1=O` (hydrate or solvate) [Example 223, 6-[2-Amino-4-(4-hydroxyphenyl)-5-pyrimidinyl)-2-methyl-3(2H)-pyridazinone], the melting point came to 250 °C.

`Cn1nc(-c2cnc(N)nc2-c2ccccc2O)ccc1=O` (hydrate or solvate) [Example 224, 6-[2-Amino-4-(2-hydroxyphenyl)-5-pyrimidinyl]-2-methyl-3(2H)-pyridazinone] showed a melting point of 260 °C. The compound `Cn1nc(-c2cnc(N)nc2-c2cccc(O)c2)ccc1=O` (hydrate or solvate) [Example 225, 6-[2-Amino-4-(3-hydroxyphenyl)-5-pyrimidinyl]-2-methyl-3(2H)-pyridazinone] gave a melting point of 285 °C. Compound `Cn1nc(-c2cnc(N)nc2-c2ccccc2)ccc1=O` [Example 3, 6-(2-Amino-4-phenyl-5-pyrimidinyl)-2-methyl-3(2H)-pyridazinone] displayed a melting point of 254 to 255 °C. `CCCn1nc(-c2cnc(N)nc2-c2ccccc2)ccc1=O` [Example 5, 6-(2-Amino-4-phenyl-5-pyrimidinyl)-2-propyl-3(2H)-pyridazinone] returned a melting point of 188 to 189 °C. Turning to `Nc1ncc(-c2ccc(=O)n(Cc3ccccc3)n2)c(-c2ccccc2)n1` [Example 6, 6-(2-Amino-4-phenyl-5-pyrimidinyl)-2-benzyl-3(2H)-pyridazinone], the melting point lay within 229 to 230 °C. On to `CNc1ncc(-c2ccc(=O)[nH]n2)c(-c2ccccc2)n1` [Example 8, 6-[2-(Methylamino)-4-phenyl-5-pyrimidinyl]-3(2H)-pyridazinone], for which the melting point is > 255 °C.

As to `CN(C)c1ncc(-c2ccc(=O)[nH]n2)c(-c2ccccc2)n1` [Example 9, 6-[2-(Dimethylamino)-4-phenyl-5-pyrimidinyl]-3(2H)-pyridazinone], the melting point fell in the range of 245 to 246 °C.

Compound `CNc1ncc(-c2ccc(=O)n(C(C)C)n2)c(-c2ccccc2)n1` [Example 10, 2-Isopropyl-6-[2-(methylamino)-4-phenyl-5-pyrimidinyl]-3(2H)-pyridazinone] returned a melting point of 160 to 161 °C. For the compound `CC(C)n1nc(-c2cnc(N(C)C)nc2-c2ccccc2)ccc1=O` [Example 11, 6-[2-(Dimethylamino)-4-phenyl-5-pyrimidinyl]-2-isopropyl-3(2H)-pyridazinone], the melting point lay within 155 to 156 °C. `CC(C)n1nc(-c2cnc(N)nc2-c2ccc(F)cc2)ccc1=O` [Example 13, 6-[2-amino-4-(4-fluorophenyl)-5-pyrimidinyl]-2-isopropyl-3(2H)-pyridazinone] gave a melting point of 238 to 239 °C.

With `CC(C)n1nc(-c2cnc(N)nc2-c2ccccc2Br)ccc1=O` [Example 15, 6-[2-Amino-4-(2-bromophenyl)-5-pyrimidinyl]-2-isopropyl-3(2H)-pyridazinone], the melting point fell in the range of 203 to 205 °C.

In the case of `CC(C)n1nc(-c2cnc(N3CCOCC3)nc2-c2ccccc2)ccc1=O` [Example 17, 2-isopropyl-6-[2-morpholino-4-phenyl-5-pyrimidinyl]-3(2H)-pyridazinone], the melting point was 200.5 to 202 °C. On to `CC(C)n1nc(-c2cnc(Nc3ccccc3)nc2-c2ccccc2)ccc1=O` [Example 19, 6-(2-Anilino-4-phenyl-5-pyrimidinyl)-2-isopropyl-3(2H)-pyridazinone], for which the melting point lay within 200 to 202 °C. For `CC(C)n1nc(-c2cnc(N)nc2-c2ccccc2F)ccc1=O` [Example 20, 6-[2-Amino-4-(2-fluorophenyl)-5-pyrimidinyl]-2-isopropyl-3(2H)-pyridazinone] the value was 239 to 240.5 °C. For `CC(C)n1nc(-c2cnc(N)nc2-c2cccc(F)c2)ccc1=O` [Example 21, 6-[2-Amino-4-(3-fluorophenyl)-5-pyrimidinyl]-2-isopropyl-3(2H)-pyridazinone] the value was 220 to 221.5 °C; for `CC(C)n1nc(-c2cnc(N)nc2-c2ccccc2Cl)ccc1=O` [Example 22, 6-[2-Amino-4-(2-chlorophenyl)-5-pyrimidinyl]-2-isopropyl-3(2H)-pyridazinone], 227 to 228.5 °C.

In the case of `CC(C)n1nc(-c2cnc(N)nc2-c2cccc(Cl)c2)ccc1=O` [Example 23, 6-[2-Amino-4-(3-chlorophenyl)-5-pyrimidinyl]-2-isopropyl-3(2H)-pyridazinone], the melting point fell in the range of 236 to 237 °C. The compound `CC(C)n1nc(-c2cnc(N)nc2-c2ccccc2C(F)(F)F)ccc1=O` [Example 24, 6-{2-Amino-4-[2-(trifluoromethyl)phenyl]-5-pyrimidinyl}-2-isopropyl-3(2H)-pyridazinone] came in with a melting point of 160 to 161 °C. For `CC(C)n1nc(-c2cnc(N)nc2-c2cccc(C(F)(F)F)c2)ccc1=O` [Example 25, 6-{2-Amino-4-[3-(trifluoromethyl)phenyl]-5-pyrimidinyl}-2-isopropyl-3(2H)-pyridazinone] the value was 163.5 to 165 °C; for `CC(C)n1nc(-c2cnc(N)nc2-c2ccc(C(F)(F)F)cc2)ccc1=O` [Example 26, 6-{2-Amino-4-[4-(trifluoromethyl)phenyl]-5-pyrimidinyl}-2-isopropyl-3(2H)-pyridazinone], 209 to 210.5 °C; for `COc1ccc(-c2nc(N)ncc2-c2ccc(=O)[nH]n2)cc1` [Example 27, 6-[2-amino-4-(4-methoxyphenyl)-5-pyrimidinyl]-3(2H)-pyridazinone], 142 °C. The compound `Nc1ncc(-c2ccc(=O)[nH]n2)c(-c2cccc(F)c2)n1` [Example 28, 6-[2-Amino-4-(3-fluorophenyl)-5-pyrimidinyl]-3(2H)-pyridazinone] registered a melting point of 249 °C. For `COc1ccc(-c2nc(N)ncc2-c2ccc(=O)[nH]n2)cc1F` [Example 29, 6-[2-Amino-4-(3-fluoro-4-methoxyphenyl)-5-pyrimidinyl]-3(2H)-pyridazinone], the melting point worked out at 250 °C. In turn, `Nc1ncc(-c2ccc(=O)[nH]n2)c(-c2cccnc2)n1` [Example 31, 6-[2-Amino-4-(3-pyridinyl)-5-pyrimidinyl]-3(2H)-pyridazinone] had a melting point of 256 °C. Turning to `Nc1ncc(-c2ccc(=O)[nH]n2)c(-c2ccco2)n1` [Example 34, 6-[2-Amino-4-(2-furyl)-5-pyrimidinyl]-3(2H)-pyridazinone], the melting point was 262 to 268 °C. The compound `Cc1ccc(-c2nc(N)ncc2-c2ccc(=O)[nH]n2)cc1` [Example 35, 6-[2-Amino-4-(4-methylphenyl)-5-pyrimidinyl]-3(2H)-pyridazinone] yielded a melting point of 249 °C.

As a reminder, the melting point is the temperature of the solid-liquid transition.
